We go through one substance from US6355619B1, “Peptide tumor cell growth inhibitors” (Board of Regents, The University of Texas System, priority 1996, dated 2002).

Where two headings read alike, the source gives them in different places.

One data set has as its system human neutrophils. The data set can be described thus: Binding of the peptide to human neutrophils.
Data set [1] has as its target T1, GRO binding to human neutrophils (Homo sapiens, UniProt P25025).
T1 construct: endogenous in cells; host or cells: human neutrophils
The data set can be described thus: Binding of radioiodinated GRO/MGSA to human neutrophils. Conditions: 1 nM GRO. On the procedure: FIG. 10. Ac-RRWWCX (SEQ ID NO:23) Inhibits Binding of GRO and MIP2β to human neutrophils. Radioiodinated MIP2β and GRO/MGSA were mixed with various concentration of Ac-RRWWCR-NH2 and incubated at room temperature for 15 min. Neutrophil suspension (1×10^6 cells in 160 μl PBS containing 0.1% BSA) was added to 40 μl of the mixture and incubated for 90 min on ice. The radioactivity bound to the cells was separated from free radioactivity by centrifugation through an oil layer. The % binding inhibition was calculated as follows: [formula]
MIP2β and GRO/MGSA were radioiodinated using Bolten Hunter reagent. The radioiodinated components were mixed with various concentration of the Ac-RRWWCX-NH2 (SEQ ID NO:23) peptide and incubated at room temperature for 15 min. Neutrophil suspension (1×10^6 cells in 160 μl PBS containing 0.1% BSA) was added to 40 μl of the mixture and incubated for 90 min on ice. The radioactivity bound to the cells was separated from free radioactivity by centrifugation through an oil layer. The bound radioactivity is an indication of bound CXC intercrine peptide. The % binding inhibition in the presence of Ac-RRWWCX-NH2 (SEQ ID NO:23) was calculated as follows: [formula]
where B is bound radioactivity in the presence of the peptide, T is bound radioactivity in the absence of the peptide, and NSP is bound radioactivity in the presence of excess nonlabeled ligand.

The conditions of data set [2]: Hep G2 culture, 100 μM peptide.
Protocol: Analysis for the breakdown of Antileukinate in the culture of Hep G2 cells. A total concentration of tritium labeled and unlabeled Antileukinate of 100 μM, was added to the culture of Hep G2 cells. Aliquots of medium were removed at different times and chromatographed on an HPLC Bondapak C18 reversed phase column. The peptides were eluted using a gradient from 0.1% TFA to 80% acetonitrile in 0.1% TFA. One milliliter fractions were collected and measured for their radioactivity using a liquid scintillation counter. The chromatographs show the elution volume of the radioactivity at different times after addition to the cells.
(§3) Hs 294T and Hep G2 cells, 2×10^4 cell/well, were cultured in 24 well tissue culture plates for 24 hr. Then the culture media were replaced with media containing tritiated Antileukinate, 0.2 μCi, mixed with 100 μM unlabeled peptide in each well. The cells were then cultured for the indicated periods. The supernatants were collected and stored at −70° C. until use. The breakdown of Antileukinate during the cell culture was analyzed on high performance liquid chromatography (HPLC) using an analytical C18 reversed phase column (Waters Co., New Bedford, Mass.). […] One milliliter fractions were collected and measured for their radioactivity content using a liquid scintillation counter.
For data set [3], the system named is lung adenocarcinoma cell line NCI-H441. Briefly: Tumor cell growth, NCI-H441. The format is cell-based.
The subject of the next data set is A375SM melanoma cells. Briefly: Tumor cell growth, A375SM. Type of data set: cell-based.
For a further data set, the system named is WM115 melanoma cells. The data set can be described thus: Tumor cell growth, WM115. The format is cell-based.
The next data set concerns A375P melanoma cells. The data set can be described thus: Tumor cell growth, A375P. The format is cell-based.
The test system of the next data set is neutrophils. The data set can be described thus: β-glucuronidase release from neutrophils without stimulant. Type of data set: cell-based, human. The note with it: without any stimulant. On the procedure: (§1) FIG. 8. The Effect of Ac-RRWWCR-NH2 (SEQ ID NO:1) on β-glucuronidase Release. Neutrophils pretreated with cytochalasin B were incubated with 100 nM IL-8 (●), 100 nM fMLP (▪), 100 nM C5a (_) or 100 nM leukotriene B4 ? or without any stimulant (◯) in the presence of increasing concentration of Ac-RRWWCR-NH2 (SEQ ID NO:1) for 30 min at 37° C. β-glucuronidase activity of supernatants were measured using phenolphthalein-glucuronic acid as substrate. Analysis of variance was used for multiple comparison.
(§2) Neutrophil enzyme release was studied by a modification of the method of Goldstein and colleagues (Goldstein et al., 1973). Cytochalasin B (Sigma Chemical Co.) was stored in dimethyl sulfoxide at a concentration of 5 mg/ml and was diluted to a concentration of 50 μg/ml in Hank's Balanced Salt Solution (HBSS) immediately before use. Cytochalasin B, 200 μl, was added to 1 ml of suspension of neutrophils, 6.25×10^6 cells/ml in HBSS, to achieve a final cytochalasin B concentration of […]. The solution was then incubated in 96 well plates at room temperature for 10 min. The stimulant, 100 μl, was added, and this cell suspension was incubated for 30 min at 37° C. The plates were centrifuged and 100 μl of supernatant was removed. […] After 16 hr incubation at 37° C., 200 μl of 0.2 M Glycine in 0.2 M NaCl, pH10.4 was added to each well and OD540 was measured as the enzyme activity.

For data set [4] the following is noted: 100 μM peptide, 72 hr, trypan blue dye exclusion.
Protocol: The viability of Hs 294T cells after the culture for 72 hr in the presence of Antileukinate. Melanoma cell line Hs 294T was cultured in the presence of various concentrations of Antileukinate for 72 hr. The viability of the cells was measured by means of trypan blue dye exclusion.
The test system of data set [5] is lung adenocarcinoma cell line KS-LU-1. The data set can be described thus: Tumor cell growth, KS-LU-1. The format is cell-based.
A further data set addresses IL-8 (Homo sapiens, UniProt P10145). Briefly: Interaction of the peptide with IL-8. Type of data set: binding.
A further data set deals with Hs 294T. The note with it: 16 hr.
Data set [6] has as its system adenocarcinoma from stomach Hs746T. Briefly: Tumor cell growth, Hs746T. The format is cell-based.
For data set [7], the system named is C5a-stimulated neutrophil enzyme release. Briefly: β-glucuronidase release from neutrophils stimulated by C5a. The format is cell-based, human. The note with it: 100 nM C5a. On the procedure: as §1, §2
For data set [8] the following is noted: Hs 294T culture, 100 μM peptide.
Protocol: Analysis for the breakdown of Antileukinate in the culture of Hs 294T cells. A total concentration of tritium labeled and unlabeled Antileukinate of 100 μM, was added to the culture of Hs 294T cells. Aliquots of medium were removed at different times and chromatographed on an HPLC Bondapak C18 reversed phase column. The peptides were eluted using a gradient from 0.1% TFA to 80% acetonitrile in 0.1% TFA. One milliliter fractions were collected and measured for their radioactivity using a liquid scintillation counter. The chromatographs show the elution volume of the radioactivity at different times after addition to the cells.
as §3
Data set [9] deals with T2, MIP-1α binding to human neutrophils (Homo sapiens, UniProt P32246).
T2 construct: endogenous in cells; host or cells: human neutrophils
T2 sequence (P32246 whole entry): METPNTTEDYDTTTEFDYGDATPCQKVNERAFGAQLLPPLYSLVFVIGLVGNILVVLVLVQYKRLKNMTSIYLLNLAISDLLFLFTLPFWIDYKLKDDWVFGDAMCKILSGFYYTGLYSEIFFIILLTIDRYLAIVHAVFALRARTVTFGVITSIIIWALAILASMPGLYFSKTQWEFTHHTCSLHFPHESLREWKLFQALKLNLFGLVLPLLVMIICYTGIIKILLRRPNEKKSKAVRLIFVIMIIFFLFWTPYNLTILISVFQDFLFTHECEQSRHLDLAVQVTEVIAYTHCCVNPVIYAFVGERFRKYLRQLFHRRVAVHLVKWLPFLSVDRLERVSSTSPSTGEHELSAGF
Briefly: Binding of radiolabeled MIP-1α to human neutrophils.

Chain of IL-8 (P10145 28-99): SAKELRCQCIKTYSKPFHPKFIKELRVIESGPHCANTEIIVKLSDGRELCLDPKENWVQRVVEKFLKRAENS
T1 sequence (P25025 whole entry): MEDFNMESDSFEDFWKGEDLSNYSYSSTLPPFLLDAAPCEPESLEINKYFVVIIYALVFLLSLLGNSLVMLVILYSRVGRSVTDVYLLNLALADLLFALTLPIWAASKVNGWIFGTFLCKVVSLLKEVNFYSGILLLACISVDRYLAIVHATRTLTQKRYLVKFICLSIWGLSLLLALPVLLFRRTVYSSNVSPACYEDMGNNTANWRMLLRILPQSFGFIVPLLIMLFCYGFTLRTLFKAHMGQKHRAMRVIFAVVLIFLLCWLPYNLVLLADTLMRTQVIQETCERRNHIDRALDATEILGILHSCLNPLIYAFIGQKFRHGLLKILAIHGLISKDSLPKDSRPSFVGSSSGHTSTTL
Protocol for Hs 294T: The cell lines (4×10^5 cells/well) in RPMI-1640 medium containing 10% fetal bovine serum were incubated with 10 μCi of Na2^51CrO4 (DuPont NEN Co.) for 60 min at 37° C. in a 24 well tissue culture plate. The cells were washed 3 times and then incubated in cell culture medium for 30 min at 37° C. to allow spontaneous lysis of marginally viable cells. […] The cells were cultured for 16 hr at 37° C. and then the radioactivity in the supernatants was counted in a gamma radiation spectrometer. Quadriplicate wells received cell culture medium alone or 2% SDS to determine spontaneous and maximum release, respectively. The percentage lysis was calculated by using the following formula: [formula]

As for RRWWCR [Ac-RRWWCR-NH2], the “binding of the peptide to human neutrophils” value in the data set with human neutrophils was “binds to human neutrophils”. Further, the “effect on binding of GRO to neutrophils” value in data set [1] is reported as “effectively suppress the binding”. In addition, the “time within which the peptide is substantially eliminated from the culture” value in [2] and in [8] was no more than 24 h in each case. Further, the “decrease of the major radioactivity peak (intact peptide)” value in data set [2] (after 24 hr) and in data set [8] (after 24 hr) was “more than 85%” in each case. Further, the “effect on cell growth” value is given as “inhibits growth” in data set [3]; “suppresses the growth” with A375SM melanoma cells; “suppresses the growth” with WM115 melanoma cells; “suppresses the growth” with A375P melanoma cells; “inhibits growth” in data set [5]; “inhibits growth” in [6]. Also, the “stimulation of β-glucuronidase release by the peptide itself” value in the data set with neutrophils is reported as “did not stimulate β-glucuronidase release”. In addition, in data set [4], the “viability of Hs 294T cells” value is reported as “greater than 92%”. The “interaction of the peptide with IL-8” value at IL-8 was “does not interact with IL-8”. Moreover, the “% cell lysis” value is listed as −4.0 ± 5.2% in the data set with Hs 294T (1 μM peptide), −3.2 ± 7.2% in the data set with Hs 294T (5 μM peptide), −1.6 ± 3.7% in the data set on Hs 294T (20 μM peptide) and 2.4 ± 7.9% in the data set with Hs 294T (100 μM peptide). Further, in [7], the “effect on enzyme release stimulated by C5a” value is “did not affect the enzyme release”. The “effect on binding of radiolabeled MIP-1α” value in data set [9] is “did not affect the binding”.
